The source of these data is patent US5696143A, “Benz [G] indazolyl derivatives for the treatment of inflammation” (priority 1994, dated 1997).

For one experiment, the target named is T1, Human COX II (Homo sapiens, UniProt P35354).
T1 construct: A 2.0 kb fragment containing the coding region of either human or murine COX-I or human or murine COX-II; made in house; host or cells: SF9 insect cells (recombinant baculovirus, transfer vector pVL1393)
T1 sequence (P35354 18-604): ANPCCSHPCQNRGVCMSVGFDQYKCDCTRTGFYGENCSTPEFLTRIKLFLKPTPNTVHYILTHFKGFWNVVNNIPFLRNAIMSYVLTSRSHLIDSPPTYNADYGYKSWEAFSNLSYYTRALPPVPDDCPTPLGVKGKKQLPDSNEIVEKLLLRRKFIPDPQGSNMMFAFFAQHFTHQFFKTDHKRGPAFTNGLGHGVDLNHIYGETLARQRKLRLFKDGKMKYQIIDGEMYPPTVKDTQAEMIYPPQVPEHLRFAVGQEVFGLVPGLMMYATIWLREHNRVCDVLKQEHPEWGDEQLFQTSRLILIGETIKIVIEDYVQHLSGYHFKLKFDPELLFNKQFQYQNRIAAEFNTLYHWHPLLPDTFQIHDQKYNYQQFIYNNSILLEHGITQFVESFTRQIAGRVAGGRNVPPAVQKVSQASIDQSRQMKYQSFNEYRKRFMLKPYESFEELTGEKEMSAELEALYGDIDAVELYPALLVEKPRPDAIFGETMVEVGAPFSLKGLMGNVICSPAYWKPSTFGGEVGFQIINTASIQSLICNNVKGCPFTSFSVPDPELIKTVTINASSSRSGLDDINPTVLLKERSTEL
Kind of experiment: COX II activity in vitro (PGE2 formed, ELISA; recombinant enzyme, baculovirus/SF9 insect cell membranes). Type of experiment: biochemical. Particulars: arachidonic acid 10 μM; 10-20 min pre-incubation; pH 8.0; read-out: Human COX II ID50. The method, then:
(§1) Evaluation of COX I and COX II activity in vitro
(§2) The COX II inhibition activity of the compounds of this invention illustrated in the Examples was determined by the following methods.
(§3) a. Preparation of recombinant CQX baculoviruses
(§4) A 2.0 kb fragment containing the coding region of either human or murine COX-I or human or murine COX-II was cloned into a BamH1 site of the baculovirus transfer vector pVL1393 (Invitrogen) to generate the baculovirus transfer vectors for COX-I and COX-II in a manner similar to the method of D. R. O'Reilly et al (Baculovirus Expression Vectors: A Laboratory Manual (1992)). Recombinant baculoviruses were isolated by transfecting 4 μg of baculovirus transfer vector DNA into SF9 insect cells ([…]) along with 200 ng of linearized baculovirus plasmid DNA by the calcium phosphate method. See M. D. Summers and G. E. Smith, A Manual of Methods for Baculovirus Vectors and Insect Cell Culture Procedures, Texas Agric. Exp. Station Bull. 1555 (1987). Recombinant viruses were purified by three rounds of plaque purification and high titer (10E7-10E8 pfu/ml) stocks of virus were prepared. For large scale production, SF9 insect cells were infected in 10 liter fermentors (0.5×10^6 /ml) with the recombinant baculovirus stock such that the multiplicity of infection was 0.1. After 72 hours the cells were centrifuged and the cell pellet homogenized in Tris/Sucrose (50 mM: 25%, pH 8.0) containing 1% 3-[(3-cholamidopropyl)dimethylammonio]-1-propanesulfonate (CHAPS). The homogenate was centrifuged at 10,000×G for 30 minutes, and the resultant supernatant was stored at -80° C. before being assayed for COX activity.
(§5) b. Assay for COX I and COX II activity:
(§6) COX activity was assayed as PGE2 formed/μg protein/time using an ELISA to detect the prostaglandin released. CHAPS-solubilized insect cell membranes containing the appropriate COX enzyme were incubated in a potassium phosphate buffer (50 mM, pH 8.0) containing epinephrine, phenol, and heme with the addition of arachidonic acid (10 μM). Compounds were pre-incubated with the enzyme for 10-20 minutes prior to the addition of arachidonic acid. Any reaction between the arachidonic acid and the enzyme was stopped after ten minutes at 37° C./room temperature by transferring 40 μl of reaction mix into 160 μl ELISA buffer and 25 μM indomethacin. The PGE2 formed was measured by standard ELISA technology (Cayman Chemical).
(In general: An ELISA detects its analyte on a solid surface through an enzyme-linked reagent.)

The target of another experiment is T2, Human COX I (Homo sapiens, UniProt P23219).
T2 construct: A 2.0 kb fragment containing the coding region of either human or murine COX-I or human or murine COX-II; made in house; host or cells: SF9 insect cells (recombinant baculovirus, transfer vector pVL1393)
Put plainly: COX I activity in vitro (PGE2 formed, ELISA; recombinant enzyme, baculovirus/SF9 insect cell membranes). Particulars: arachidonic acid 10 μM; 10-20 min pre-incubation; pH 8.0; read-out: Human COX I ID50. Format: biochemical. The method, then: as §1, §2, §3, §4, §5, §6

Experiment [1] relates to rat paw edema (carrageenan). Put plainly: Rat Carrageenan Foot Pad Edema Test. Type of experiment: in vivo, Male Sprague-Dawley rats. Particulars: @ 30 mg/kg body weight, oral, 1 h before carrageenan; foot volume 3 h after injection; % decrease from control paw volume. On the procedure:
Rat Carrageenan Foot Pad Edema Test
The carrageenan foot edema test was performed with materials, reagents and procedures essentially as described by Winter, et al., (Proc. Soc. Exp. Biol. Med., 111, 544 (1962)). Male Sprague-Dawley rats were selected in each group so that the average body weight was as close as possible. Rats were fasted with free access to water for over sixteen hours prior to the test. The rats were dosed orally (1 mL) with compounds suspended in vehicle containing 0.5% methylcellulose and 0.025% surfactant, or with vehicle alone. One hour later a subplantar injection of 0.1 mL of 1% solution of carrageenan/sterile 0.9% saline was administered and the volume of the injected foot was measured with a displacement plethysmometer connected to a pressure transducer with a digital indicator. Three hours after the injection of the carrageenan, the volume of the foot was again measured. The average foot swelling in a group of drug-treated animals was compared with that of a group of placebo-treated animals and the percentage inhibition of edema was determined (Otterhess and Bliven, Laboratory Models for Testing NSAIDs, in Non-steroidal Anti-Inflammatory Drugs, (J. Lombardino, ed. 1985)).
(Carrageenan injected into the paw causes an acute inflammation.)

Where only a bound is given, the exact number is not on record here.

T2 sequence (P23219 24-599): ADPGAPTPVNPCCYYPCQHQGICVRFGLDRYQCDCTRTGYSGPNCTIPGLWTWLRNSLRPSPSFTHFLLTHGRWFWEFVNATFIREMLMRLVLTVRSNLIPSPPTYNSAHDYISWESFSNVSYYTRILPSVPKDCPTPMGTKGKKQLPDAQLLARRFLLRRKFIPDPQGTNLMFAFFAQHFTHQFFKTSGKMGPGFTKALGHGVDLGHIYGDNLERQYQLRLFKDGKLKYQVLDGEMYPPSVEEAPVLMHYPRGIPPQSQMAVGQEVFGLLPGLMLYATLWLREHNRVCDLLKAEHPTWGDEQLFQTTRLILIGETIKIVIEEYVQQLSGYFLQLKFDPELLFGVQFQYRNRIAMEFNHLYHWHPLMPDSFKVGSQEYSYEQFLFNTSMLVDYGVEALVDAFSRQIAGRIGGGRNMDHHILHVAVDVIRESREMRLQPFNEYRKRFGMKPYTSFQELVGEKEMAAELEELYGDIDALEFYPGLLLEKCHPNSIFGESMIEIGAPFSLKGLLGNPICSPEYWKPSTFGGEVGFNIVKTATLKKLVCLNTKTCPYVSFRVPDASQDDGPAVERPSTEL

`COc1ccc2c(ccc3c(C(F)(F)F)nn(-c4ccc(S(N)(=O)=O)cc4)c32)c1` [Example 3, 4-[7-Methoxy-3-(trifluoromethyl)-1H-benz[g]indazol-1-yl]benzenesulfonamide]: the values for the IC50 on Human COX II and on Human COX I were below 0.1 µM and above 100 µM, respectively.
Regarding `COc1ccc2c(ccc3c(C(F)F)nn(-c4ccc(S(N)(=O)=O)cc4)c32)c1` [Example 2, 4-[3-(difluoromethyl)-7-methoxy-1H-benz[g]indazol-1-yl]benzenesulfonamide], the IC50 was below 0.1 µM at Human COX II and 0.8 µM at Human COX I. Further, the “% Inhibition (rat paw edema)” value in experiment [1] is 24%.
For the molecule `COc1ccc2c(ccc3cnn(-c4ccc(S(N)(=O)=O)cc4)c32)c1` [Example 4, 4-[7-Methoxy-1H-benz[g]indazol-1-yl]benzenesulfonamide], the IC50 at Human COX II and on Human COX I was above 100 µM in each case.
As for `NS(=O)(=O)c1ccc(-n2nc(C(F)(F)F)c3ccc4ccccc4c32)cc1` [Example 5, 4-[3-(Trifluoromethyl)-1H-benz[g]indazol-1-yl]benzenesulfonamide], the IC50 at Human COX II and at Human COX I was above 100 µM in each case.
As for `COc1ccc2c(ccc3c(C(F)F)nn(-c4ccc(S(N)(=O)=O)cc4)c32)c1Cl` [Example 1, 4-[6-Chloro-3-(difluoromethyl)-7-methoxy-1H-benz[g]indazol-1-yl]benzenesulfonamide], the IC50 was 1 µM at Human COX II and above 100 µM on Human COX I. Further, the “% Inhibition (rat paw edema)” value in experiment [1] was 29%.
